# Assay results published in patent publication US8637461B2, “Method of diagnosing and treating oxidative stress-impaired wound healing” (Kuwait University, priority 2011, dated 2014).
# Key:
# [1] = system: IRS-1; assay: IRS-1 Tyr612 phosphorylation, immunoprecipitation/western blotting in dermal fibroblasts; type: cell-based, rat
# Method: (§1) Primary dermal fibroblasts were obtained from dorsal skin of female Goto Kakizaki (GK, age 12-15 months) rats, a model for non-obese type 2 diabetes, and their Wistar control counterparts. After sterilization in povidine solution, rat skin was washed in sterile water and rinsed in 70% ethanol in PBS. Epidermis and dermis were separated following overnight incubation in 0.25% trypsine/EDTA at 4 C. Dermis was cut into small pieces and incubated in Dulbecco's modified Eagle medium (DMEM; Invitrogen) containing collagenase (250 U/ml; Sigma) for thirty min at 37 C in 5% CO2 with constant agitation. The sections were triturated vigorously to release fibroblasts, which were collected by centrifugation. The cell pellet was washed two times with PBS, re-suspended in complete medium (DMEM supplemented with 10% fetal calf serum, penicillin (100 U/ml), streptomycin (100 μg/ml)), 2 mM L-glutamine and 10 mM HEPES) and then cultured under a standard condition.
# A hypercortisolemic state was mimicked by exposing control fibroblasts to dexamethasone (Dexa, Sigma) administered at 20 ng/ml every other day for a duration of 8 days. Similarly, the state of low-grade inflammation in fibroblasts was recapitulated experimentally by exposing these cells to TNF-α (4 ng/ml every day for 4 days). […] The concentration of IGF-1 (50 ng/ml, Peprotech) was determined by prior dose response experiment.
# Levels/activities of key intracellular molecules in the IGF-1 signaling cascade including IRS-1, IRS-1 Tyr-p-612, PI3K-p85α, IRS-1 Ser-p (307), PI3K, Akt, p-Akt, INK and p-JNK were assessed using western blotting/immunoprecipitation and commercially available ELISA-based assays.
# Ice-cold radioimmunoprecipitation assay (RIPA) buffer was used for the extraction of proteins from fibroblasts. Immunoprecipitation was achieved by incubating cell homogenates with anti-IRS-1 antibody overnight at 4° C. followed by the addition of protein A/G-Agarose for additional two hours. Immunoprecipitates were separated using spin-collection filters (Cytosignal), washed once with RIPA buffer/3× with PBS and then elutated by the addition of Laemmli buffer. […] Antigen-antibody complexes were visualized by an enhanced chemiluminescence system on BioMax Light Film (Kodack) and then the densitometry was analyzed using Quantity One 1-D image software (BioRad, GS 800). All densitometry data were corrected for equal loading using the house keeping gene β-actin and they were expressed as fold change vs. control.
# [2] = system: PI3K; assay: PI3K ELISA kinase assay on fibroblast lysates; type: cell-based, rat; details: diabetic, TNF-α- or dexamethasone-exposed cells; co-exposure to EUK-134
# Method: as §1
# (§2) A hypercortisolemic state was mimicked by exposing control fibroblasts to dexamethasone (Dexa, Sigma) administered at 20 ng/ml every other day for a duration of 8 days. […] The concentration of IGF-1 (50 ng/ml, Peprotech) was determined by prior dose response experiment.
# PI3K activity was measured using PI3K ELISA (Echelon Biosciences Inc). […]
# [3] = system: dermal fibroblasts; assay: Radiolabelled proline uptake assay (collagen synthesis) in fibroblasts; type: cell-based, rat; details: diabetic, TNF-α- or dexamethasone-exposed cells; EUK-134
# Method: as §1, with “The cell pellet was washed two times with PBS, re-suspended in complete medium (DMEM supplemented with 10% fetal calf serum, penicillin (100 U/ml), streptomycin (100 μg/ml)), 2 mM L-glutamine and 10 mM HEPES) and then cultured under a standard condition.” left out
# as §2
# The proliferation and collagen synthesis of cultured fibroblasts were determined using, respectively the 5-bromo-2-deoxyuridine (BrdU) incorporation into DNA and a radiolabelled proline uptake assay.
# A radiolabel proline uptake assay was used in the quantification of the rate of collagen synthesis in cultured fibroblasts derived from various experimental groups. […]
# [4] = system: excisional wounds; assay: Full-thickness excisional wound healing, 7 days; type: in vivo, rat
# Method: All animal procedures were performed in accordance with the NIH Guidance for the Care and Use of Laboratory Animals. The current study used, respectively the GK and Dexamethasone-treated rats as models for diabetes and hypercortisolemia. Dexamethasone was administered subcutaneously at a dose of 2.5 μg/kg body weight in the morning (8:00 AM) and in the evening (8:00 PM) for a duration of four weeks before wounding and this form of therapy continued during the course of healing. […] Weight and age-matched female Wistar rats (Kuwait University breeding colony) served as the corresponding controls. All of the animals were maintained under standard conditions with 12 hours on/off light cycle, commercial diet, and water ad libitum. GK rats destined for wounding were initially matched with regard to body weight (e.g., 230 to 250 g), and plasma levels of glucose, free fatty acids and insulin. These indices are commonly used to reflect the severity of the diabetic state.
# Animals used for IGF-1 sensitivity (n=6/group) and wound healing (n=8) studies were partitioned into five study groups including control, diabetic, hypercortisolemic, diabetic+EUK and hypercortisolemic+EUK. The EUK-134 was administered for duration of four weeks before wound induction and it continued during the course of healing.
# Animals derived from various experimental groups were anesthetized by ip, injection of 90 mg ketamine+10 mg xylazine/kg body weight, and their back skin was shaved, depilated with Nair and cleaned with 70% alcohol. Six bilateral full-thickness excisional wounds (8 mm in diameter) at equidistant from midline were created on the dorso-rostral back skin. Wounds were separated by a minimum of 1 cm of uninjured skin. […] The wound area was analyzed using Adobe PhotoShop (version 7.0; Adobe Systems) and the percentage of wound closure was derived by the following formula: (1−[current wound size/initial wound size])×100.
compound,measurement,setting,value
COc1cccc(C=NCCN=Cc2cccc(OC)c2[O-])c1[O-].[Cl-].[Mn+3] [EUK-134],inhibition of IGF-1-induced IRS-1 Tyr612 phosphorylation,"[1]; diabetic fibroblasts or normal fibroblasts exposed to TNF-α or dexamethasone, EUK-134",ameliorates the inhibition of IRS-1 phosphorylation
same,common defect in IGF-1 signaling,"[1]; fibroblasts with diabetic, inflammatory or hypercortisolemia phenotypes, ROS suppressors",correct the common defect in IGF-1 signaling
same,PI3K enzymatic activity,[2],partially restored
same,proline uptake (collagen synthesis),[3],returns it to approximately control levels
same,wound healing,"[4]; diabetic rats, treatment with EUK-134 and/or IGF-1",heal as rapidly as those on control rats
same,healing rates of wounds,"[4]; diabetic/hypercortisolemic rat wounds, antioxidant administered",statistically indistinguishable from control rat wounds treated with IGF-1 alone
